Target: T1, vanilloid receptor 1 (VR1/TRPV1 receptor) (Homo sapiens, UniProt Q8NER1)
T1 construct: expressed in transfected cells; host or cells: CHO K1 cells (ECACC), stably transfected
Assay: VR1/TRPV1 receptor affinity, capsaicin stimulus (human)
Type: cell-based, human being
Settings: @ 5 μM, Tables 8-12, read-out: (f) Ki (human being) [nM] Cap: inhibition (as a percentage)

T1 sequence (Q8NER1 whole entry): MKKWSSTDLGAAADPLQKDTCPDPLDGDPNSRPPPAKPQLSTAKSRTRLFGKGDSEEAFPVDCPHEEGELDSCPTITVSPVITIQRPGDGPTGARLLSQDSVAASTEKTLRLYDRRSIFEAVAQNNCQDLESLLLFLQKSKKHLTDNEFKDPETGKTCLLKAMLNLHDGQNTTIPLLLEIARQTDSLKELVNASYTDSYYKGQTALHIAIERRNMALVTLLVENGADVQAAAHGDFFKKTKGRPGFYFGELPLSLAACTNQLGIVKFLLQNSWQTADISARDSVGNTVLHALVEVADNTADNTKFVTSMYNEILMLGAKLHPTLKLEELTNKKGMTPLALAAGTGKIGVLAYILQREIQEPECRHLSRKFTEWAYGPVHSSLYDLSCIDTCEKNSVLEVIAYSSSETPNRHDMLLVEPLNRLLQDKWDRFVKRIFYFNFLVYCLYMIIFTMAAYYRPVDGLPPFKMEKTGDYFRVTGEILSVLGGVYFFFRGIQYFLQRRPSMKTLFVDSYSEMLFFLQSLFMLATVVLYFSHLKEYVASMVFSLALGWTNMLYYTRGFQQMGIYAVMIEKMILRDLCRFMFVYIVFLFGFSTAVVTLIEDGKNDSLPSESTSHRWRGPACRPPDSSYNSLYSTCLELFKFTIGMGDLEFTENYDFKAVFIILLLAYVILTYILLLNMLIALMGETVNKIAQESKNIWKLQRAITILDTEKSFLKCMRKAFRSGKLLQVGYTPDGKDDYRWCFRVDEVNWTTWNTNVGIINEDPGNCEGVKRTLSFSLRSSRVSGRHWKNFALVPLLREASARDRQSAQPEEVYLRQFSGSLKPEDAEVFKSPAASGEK

Row | inhibition at 5 µM [%] | SMILES
1 | 43 | O=C(NCc1cc(C(F)(F)F)nn1-c1cccc(Cl)c1)Nc1ccc(CN2CCCC2)cc1 [Example B99, 1-[[2-(3-Chlorophenyl)-5-(trifluoromethyl)-2H-pyrazol-3-yl]-methyl]-3-[4-(pyrrolidin-1-yl-methyl)-phenyl]-urea]
2 | 17 | O=C(NCc1cc(C(F)(F)F)nn1-c1cccc(Cl)c1)Nc1ccc(CN2CCCCC2)c(F)c1 [Example B100, 1-[[2-(3-Chlorophenyl)-5-(trifluoromethyl)-2H-pyrazol-3-yl]-methyl]-3-[3-fluoro-4-(piperidin-1-yl-methyl)-phenyl]-urea]
3 | 43 | CC(C)(C)c1cc(CNC(=O)Nc2ccc(CN3CCCC3)c(F)c2)n(-c2cccc(Cl)c2)n1 [Example B101, 1-[[5-tert-Butyl-2-(3-chlorophenyl)-2H-pyrazol-3-yl]-methyl]-3-[3-fluoro-4-(pyrrolidin-1-yl-methyl)-phenyl]-urea]
4 | 54 | CC(C(=O)NCc1cc(C(F)(F)F)nn1-c1ccc(F)c(F)c1)c1ccc(N2CCCS2(=O)=O)c(F)c1 (stereo not shown) [Example C3, N-[[2-(3,4-Difluoro-phenyl)-5-(trifluoromethyl)-2H-pyrazol-3-yl]-methyl]-2-[4-(1,1-dioxo-[1,2]thiazolidin-2-yl)-3-fluoro-phenyl]-propionamide]
5 | 13 | O=C(NCc1cc(C(F)(F)F)nn1-c1cccc(F)c1)Nc1ccc(N2CCCC2)c(F)c1 [Example C4, 1-[[2-(3-Fluorophenyl)-5-(trifluoromethyl)-2H-pyrazol-3-yl]-methyl]-3-(3-fluoro-4-pyrrolidin-1-yl-phenyl)-urea]

Same assay, conditions: Tables 8-12, read-out: (f) Ki (human being) [nM] Cap

Row | SMILES | Ki [nM]
6 | NS(=O)(=O)NCc1ccc(NC(=O)NCc2cc(C(F)(F)F)nn2-c2ccc(F)c(Cl)c2)cc1 [Example B78, 1-[[2-(3-Chloro-4-fluoro-phenyl)-5-(trifluoromethyl)-2H-pyrazol-3-yl]-methyl]-3-[4-[(sulfamoylamino)-methyl]-phenyl]-urea] | 21
7 | CC(C)c1cccc(-n2nc(C(F)(F)F)cc2CNC(=O)Nc2ccc(CNS(N)(=O)=O)cc2)c1 [Example B79, 1-[[2-(3-Isopropyl-phenyl)-5-(trifluoromethyl)-2H-pyrazol-3-yl]-methyl]-3-[4-[(sulfamoylamino)-methyl]-phenyl]-urea] | 2
8 | CC(C)c1cccc(-n2nc(C(F)(F)F)cc2CNC(=O)C(C)c2ccc(CNS(C)(=O)=O)c(F)c2)c1 (stereo not shown) [Example B82, 2-[3-Fluoro-4-(methanesulfonamido-methyl)-phenyl]-N-[[2-(3-isopropyl-phenyl)-5-(trifluoromethyl)-2H-pyrazol-3-yl]-methyl]-propionamide] | 0.8
9 | CC(C)c1cccc(-n2nc(C(F)(F)F)cc2CNC(=O)Nc2ccc(CNS(C)(=O)=O)cc2)c1 [Example B83, 1-[[2-(3-isopropyl-phenyl)-5-(trifluoromethyl)-2H-pyrazol-3-yl]-methyl]-3-[4-(methanesulfonamido-methyl)-phenyl]-urea] | 3
10 | CCS(=O)(=O)NCc1ccc(NC(=O)NCc2cc(C(F)(F)F)nn2-c2cccc(Cl)c2)cc1 [Example B84, 1-[[2-(3-Chlorophenyl)-5-(trifluoromethyl)-2H-pyrazol-3-yl]-methyl]-3-[4-[[(ethylsulfonyl)amino]-methyl]-phenyl]-urea] | 53
11 | Cc1cccc(-n2nc(C(F)(F)F)cc2CNC(=O)Nc2ccc(CNS(C)(=O)=O)cc2)c1 [Example B89, 1-[4-(Methanesulfonamido-methyl)-phenyl]-3-[[2-(m-tolyl)-5-(trifluoromethyl)-2H-pyrazol-3-yl]-methyl]-urea] | 24
12 | CCS(=O)(=O)NCc1ccc(NC(=O)NCc2cc(C(F)(F)F)nn2-c2cccc(C)c2)cc1 [Example B91, 1-[4-[[(Ethylsulfonyl)amino]-methyl]-phenyl]-3-[[2-(m-tolyl)-5-(trifluoromethyl)-2H-pyrazol-3-yl]-methyl]-urea] | 57
13 | CC(C)c1cccc(-n2nc(C(F)(F)F)cc2CNC(=O)C(C)c2ccc(CNS(N)(=O)=O)c(F)c2)c1 (stereo not shown) [Example B94, 2-[3-Fluoro-4-[(sulfamoylamino)-methyl]-phenyl]-N-[[2-(3-isopropyl-phenyl)-5-(trifluoromethyl)-2H-pyrazol-3-yl]-methyl]-propionamide] | 0.9
14 | CC(C(=O)NCc1cc(C2CC2)nn1-c1cccc(Cl)c1)c1ccc(CNS(N)(=O)=O)c(F)c1 (stereo not shown) [Example B95, N-[[2-(3-Chlorophenyl)-5-cyclopropyl-2H-pyrazol-3-yl]-methyl]-2-[3-fluoro-4-[(sulfamoylamino)-methyl]-phenyl]-propionamide] | 22
15 | CC(C(=O)NCc1cc(C(F)(F)F)nn1-c1cccc(Cl)c1)c1ccc(CNS(N)(=O)=O)cc1 (stereo not shown) [Example B102, N-[[2-(3-Chlorophenyl)-5-(trifluoromethyl)-2H-pyrazol-3-yl]-methyl]-2-[4-[(sulfamoylamino)-methyl]-phenyl]-propionamide] | 1
16 | CC(C(=O)NCc1cc(C(C)(C)C)nn1-c1cccc(Cl)c1)c1ccc(CNS(N)(=O)=O)cc1 (stereo not shown) [Example B103, N-[[5-tert-Butyl-2-(3-chlorophenyl)-2H-pyrazol-3-yl]-methyl]-2-[4-[(sulfamoylamino)-methyl]-phenyl]-propionamide] | 0.7
17 | CC(C(=O)NCc1cc(C(F)(F)F)nn1-c1cccc(Cl)c1)c1ccc(N2CCCS2(=O)=O)c(F)c1 (stereo not shown) [Example C1, N-[[2-(3-Chlorophenyl)-5-(trifluoromethyl)-2H-pyrazol-3-yl]-methyl]-2-[4-(1,1-dioxo-[1,2]thiazolidin-2-yl)-3-fluoro-phenyl]-propionamide] | 49

More lines, now with the values ahead:

Row | Ki [nM] | SMILES
18 | 2 | CC(C)c1cccc(-n2nc(C(F)(F)F)cc2CNC(=O)Nc2ccc(CNS(N)(=O)=O)c(F)c2)c1 [Example B80, 1-[3-Fluoro-4-[(sulfamoylamino)-methyl]-phenyl]-3-[[2-(3-isopropyl-phenyl)-5-(trifluoromethyl)-2H-pyrazol-3-yl]-methyl]-urea]
19 | 33 | CS(=O)(=O)NCc1ccc(NC(=O)NCc2cc(C(F)(F)F)nn2-c2cccc(Cl)c2)cc1 [Example B81, 1-[[2-(3-Chlorophenyl)-5-(trifluoromethyl)-2H-pyrazol-3-yl]-methyl]-3-[4-(methanesulfonamido-methyl)-phenyl]-urea]
20 | 16 | CCS(=O)(=O)NCc1ccc(NC(=O)NCc2cc(C(C)(C)C)nn2-c2cccc(Cl)c2)cc1 [Example B85, 1-[[5-tert-Butyl-2-(3-chlorophenyl)-2H-pyrazol-3-yl]-methyl]-3-[4-[[(ethylsulfonyl)amino]-methyl]-phenyl]-urea]
21 | 93 | COc1cc(NC(=O)NCc2cc(C(F)(F)F)nn2-c2cccc(C)c2)ccc1CNS(C)(=O)=O [Example B86, 1-[4-(Methanesulfonamido-methyl)-3-methoxy-phenyl]-3-[[2-(m-tolyl)-5-(trifluoromethyl)-2H-pyrazol-3-yl]-methyl]-urea]
22 | 15 | Cc1cccc(-n2nc(C(F)(F)F)cc2CNC(=O)Nc2ccc(CNS(C)(=O)=O)c(F)c2)c1 [Example B87, 1-[3-Fluoro-4-(methanesulfonamido-methyl)-phenyl]-3-[[2-(m-tolyl)-5-(trifluoromethyl)-2H-pyrazol-3-yl]-methyl]-urea]
23 | 29 | Cc1cccc(-n2nc(C(C)(C)C)cc2CNC(=O)C(C)c2ccc(CNS(C)(=O)=O)c(F)c2)c1 (stereo not shown) [Example B88, N-[[5-tert-Butyl-2-(m-tolyl)-2H-pyrazol-3-yl]-methyl]-2-[3-fluoro-4-(methanesulfonamido-methyl)-phenyl]-propionamide]
24 | 12 | Cc1cccc(-n2nc(C(C)(C)C)cc2CNC(=O)Nc2ccc(CNS(C)(=O)=O)cc2)c1 [Example B90, 1-[[5-tert-Butyl-2-(m-tolyl)-2H-pyrazol-3-yl]-methyl]-3-[4-(methanesulfonamido-methyl)-phenyl]-urea]
25 | 67 | CCS(=O)(=O)NCc1ccc(NC(=O)NCc2cc(C(C)(C)C)nn2-c2cccc(C)c2)cc1 [Example B92, 1-[[5-tert-Butyl-2-(m-tolyl)-2H-pyrazol-3-yl]-methyl]-3-[4-[[(ethylsulfonyl)amino]-methyl]-phenyl]-urea]
26 | 4 | CC(C(=O)NCc1cc(C(C)(C)C)nn1-c1cccc(Cl)c1)c1ccc(CNS(N)(=O)=O)c(F)c1 (stereo not shown) [Example B93, N-[[5-tert-Butyl-2-(3-chlorophenyl)-2H-pyrazol-3-yl]-methyl]-2-[3-fluoro-4-[(sulfamoylamino)-methyl]-phenyl]-propionamide]
27 | 0.9 | CC(C(=O)NCc1cc(C(C)(C)C)nn1-c1ccc(F)c(Cl)c1)c1ccc(CNS(N)(=O)=O)c(F)c1 (stereo not shown) [Example B96, N-[[5-tert-Butyl-2-(3-chloro-4-fluoro-phenyl)-2H-pyrazol-3-yl]-methyl]-2-[3-fluoro-4-[(sulfamoylamino)-methyl]-phenyl]-propionamide]
28 | 1 | CC(C(=O)NCc1cc(C(F)(F)F)nn1-c1cccc(Cl)c1)c1ccc(CNS(N)(=O)=O)c(F)c1 (stereo not shown) [Example B97, N-[[2-(3-Chlorophenyl)-5-(trifluoromethyl)-2H-pyrazol-3-yl]-methyl]-2-[3-fluoro-4-[(sulfamoylamino)-methyl]-phenyl]-propionamide]
29 | 3 | COc1cc(C(C)C(=O)NCc2cc(C(C)(C)C)nn2-c2cccc(Cl)c2)ccc1CNS(C)(=O)=O (stereo not shown) [Example B98, N-[[5-tert-Butyl-2-(3-chlorophenyl)-2H-pyrazol-3-yl]-methyl]-2-[4-(methanesulfonamido-methyl)-3-methoxy-phenyl]-propionamide]
30 | 50 | CC(C(=O)NCc1cc(C(C)(C)C)nn1-c1ccc(F)c(Cl)c1)c1ccc(N2CCCS2(=O)=O)c(F)c1 (stereo not shown) [Example C2, N-[[5-tert-Butyl-2-(3-chloro-4-fluoro-phenyl)-2H-pyrazol-3-yl]-methyl]-2-[4-(1,1-dioxo-[1,2]thiazolidin-2-yl)-3-fluoro-phenyl]-propionamid]
31 | 44 | O=C(NCc1cc(C(F)(F)F)nn1-c1cccc(Cl)c1)Nc1ccc(N2CCOCC2)c(F)c1 [Example C5, 1-[[2-(3-Chlorophenyl)-5-(trifluoromethyl)-2H-pyrazol-3-yl]-methyl]-3-(3-fluoro-4-morpholin-4-yl-phenyl)-urea]
